Article PMC6102642, “Effect of Noncanonical Amino Acids on Protein–Carbohydrate Interactions: Structure, Dynamics, and Carbohydrate Affinity of a Lectin Engineered with Fluorinated Tryptophan Analogs” (ACS Chemical Biology, 2018)

Tests used:
Assay type in all cases: binding
Settings in all cases: SD
RSL[5FW] = target: T1, RSL[5FW]
T1 construct: all seven Trp replaced by 5-fluorotryptophan (86% of protein 7/7 labeled); from pQE80L-RSL in E. coli BWEC47; homotrimer

RSL[7FW] = target: T2, RSL[7FW]
T2 construct: all seven Trp replaced by 7-fluorotryptophan (84% of protein 7/7 labeled); from pQE80L-RSL in E. coli BWEC47; homotrimer

RSL = target: T3, RSL (Ralstonia solanacearum, UniProt A0A0S4TLR1); test: biochemical
T3 construct: gene E7Z57_08365

RSL[4FW] = target: T4, RSL[4FW]
T4 construct: all seven Trp replaced by 4-fluorotryptophan (85% of protein 7/7 labeled); from pQE80L-RSL in E. coli BWEC47; homotrimer

SMILES	Kd (RSL[5FW]) [µM]	Kd (RSL[7FW]) [µM]	Kd (RSL) [µM]	Kd (RSL[4FW]) [µM]
CC(=O)N[C@H]1[C@H](O[C@H]2[C@@H](O)[C@@H](CO)OC(O)[C@@H]2O)O[C@H](CO)[C@@H](O[C@@H]2O[C@H](CO)[C@H](O)[C@H](O)[C@H]2O[C@@H]2O[C@@H](C)[C@@H](O)[C@@H](O)[C@@H]2O)[C@@H]1O (stereo partly drawn) [HType2, blood group H type 2 antigen tetrasaccharide, Fucα1–2Galβ1–4GlcNAcβ1–3Gal]	6.06	4.35	6.36	8.18
CO[C@@H]1O[C@@H](C)[C@@H](O)[C@@H](O)[C@@H]1O [αMeFuc, methyl α-L-fucopyranoside]	0.889	1.11	1.21	1.73
CC(=O)N[C@H]1[C@H](O[C@H]2[C@@H](O)[C@@H](CO)OC(O)[C@@H]2O)O[C@H](CO)[C@@H](O[C@@H]2O[C@H](CO)[C@H](O)[C@H](O)[C@H]2O)[C@@H]1O[C@@H]1O[C@@H](C)[C@@H](O)[C@@H](O)[C@@H]1O (stereo partly drawn) [LeX, lewis X tetrasaccharide, Galβ1–4[Fucα1–3]GlcNAcβ1–3Gal]	52.4	52.1	32.5	67.8
